Experimental data: US12257237B2 (priority 2017, dated 2025)

Test system: DD013 dedifferentiated liposarcoma
Assay: Antitumour activity in DD013 dedifferentiated liposarcoma xenograft model
Assay type: in vivo, Athymic nude mice
Conditions: for optimal T/C: day 50
Description: Experiments were performed with female Athymic nude mice, 9-10 weeks old obtained from Harlan Laboratories (Udine, Italy). They were maintained under Specific Pathogen Free conditions with constant temperature and humidity, according to the institutional guidelines.
Tumour growth mice was monitored two/three times a week (depending on tumour growth rate, to avoid unnecessary stress to the animals) by Vernier caliper. Mice were sacrificed when tumour reached a mean weight of 2±0.5 gr. The antitumour activity will be expressed as T/C %, where T and C were the mean tumour weight of treated and control groups, respectively. Mice were monitored daily and weighted at least two times a week. Tolerability was evaluated on the basis of body weight loss (BWL) and clinical observation.
Statistical analysis was performed with GraphPad Prism version 6.01 software (GraphPad software, Inc., La Jolla, CA, USA). ANOVA test was performed to evaluate if there were statistically significant differences between treated and control groups.
Briefly, xenografts were obtained by transplanting 3-4 mm tumour fragments s.c. in the flanks of mice. The growing tumour masses were measured with the aid of a Vernier caliper, and the tumour weights (TW, 1 mm^3=1 mg) were calculated by the formula: length×(width) 2/2. When tumour load achieved about 200-400 mg, mice were randomized into the experimental groups.

Cn1c(CCCCCCC(=O)NO)nc2cc(N(CCCl)CCCl)ccc21 [EDO-S101, 7-(5-(bis(2-chloroethyl)amino)-1-methyl-1H-benzo[d]imidazol-2-yl)-N-hydroxyheptanamide]
optimal T/C (40 mg/kg i.v. q7dx3): 27.2% | effect on tumour growth (40 mg/kg q7dx3, first cycle): reduced tumour growth, but without a complete arrest | effect of second cycle on tumour growth (40 mg/kg, second cycle from day 50): promoted tumour growth arrest | optimal T/C (60 mg/kg i.v. q7dx3): 14% | effect on tumour growth (60 mg/kg, first cycle): induced tumour growth arrest | effect of second cycle on tumour growth (60 mg/kg, second cycle from day 72): sustained tumour growth arrest | optimal T/C (80 mg/kg i.v. single dose): 18% | effect on tumour growth (80 mg/kg, first cycle): induced tumour growth arrest | effect of second cycle on tumour growth (80 mg/kg, second cycle from day 58): Tumour growth arrest was also observed | DD0113 tumour weight, Mean (EDO40: EDO-S101 40 mg/kg q7dx3, day 23 from inoculum): 198.6 mg | DD0113 tumour weight, Mean (EDO40: EDO-S101 40 mg/kg q7dx3, day 26 from inoculum): 283.6 mg | DD0113 tumour weight, Mean (EDO40: EDO-S101 40 mg/kg q7dx3, day 29 from inoculum): 319.2 mg | DD0113 tumour weight, Mean (EDO40: EDO-S101 40 mg/kg q7dx3, day 33 from inoculum): 394.4 mg | DD0113 tumour weight, Mean (EDO40: EDO-S101 40 mg/kg q7dx3, day 36 from inoculum): 380.3 mg | DD0113 tumour weight, Mean (EDO40: EDO-S101 40 mg/kg q7dx3, day 40 from inoculum): 433.4 mg | DD0113 tumour weight, Mean (EDO40: EDO-S101 40 mg/kg q7dx3, day 43 from inoculum): 451.3 mg | DD0113 tumour weight, Mean (EDO40: EDO-S101 40 mg/kg q7dx3, day 47 from inoculum): 507.4 mg | DD0113 tumour weight, Mean (EDO40: EDO-S101 40 mg/kg q7dx3, day 50 from inoculum): 570.5 mg | DD0113 tumour weight, Mean (EDO40: EDO-S101 40 mg/kg q7dx3, day 54 from inoculum): 599.5 mg | DD0113 tumour weight, Mean (EDO40: EDO-S101 40 mg/kg q7dx3, day 58 from inoculum): 584.1 mg | DD0113 tumour weight, Mean (EDO40: EDO-S101 40 mg/kg q7dx3, day 62 from inoculum): 677.9 mg | DD0113 tumour weight, Mean (EDO40: EDO-S101 40 mg/kg q7dx3, day 65 from inoculum): 677.8 mg | DD0113 tumour weight, Mean (EDO40: EDO-S101 40 mg/kg q7dx3, day 69 from inoculum): 703.2 mg | DD0113 tumour weight, Mean (EDO40: EDO-S101 40 mg/kg q7dx3, day 72 from inoculum): 669.8 mg | DD0113 tumour weight, Mean (EDO40: EDO-S101 40 mg/kg q7dx3, day 75 from inoculum): 666.1 mg | DD0113 tumour weight, Mean (EDO40: EDO-S101 40 mg/kg q7dx3, day 79 from inoculum): 756.8 mg | DD0113 tumour weight, Mean (EDO40: EDO-S101 40 mg/kg q7dx3, day 83 from inoculum): 683.9 mg | DD0113 tumour weight, Mean (EDO40: EDO-S101 40 mg/kg q7dx3, day 87 from inoculum): 935.9 mg | DD0113 tumour weight, Mean (EDO40: EDO-S101 40 mg/kg q7dx3, day 90 from inoculum): 1022.8 mg | DD0113 tumour weight, Mean (EDO40: EDO-S101 40 mg/kg q7dx3, day 94 from inoculum): 1226.5 mg | DD0113 tumour weight, Mean (EDO40: EDO-S101 40 mg/kg q7dx3, day 98 from inoculum): 1338.0 mg | DD0113 tumour weight, Mean (EDO40: EDO-S101 40 mg/kg q7dx3, day 100 from inoculum): 1553.1 mg | DD0113 tumour weight, Mean (EDO60: EDO-S101 60 mg/kg q7dx3, day 23 from inoculum): 199.2 mg | DD0113 tumour weight, Mean (EDO60: EDO-S101 60 mg/kg q7dx3, day 26 from inoculum): 272.5 mg | DD0113 tumour weight, Mean (EDO60: EDO-S101 60 mg/kg q7dx3, day 29 from inoculum): 310.4 mg | DD0113 tumour weight, Mean (EDO60: EDO-S101 60 mg/kg q7dx3, day 33 from inoculum): 373.1 mg | DD0113 tumour weight, Mean (EDO60: EDO-S101 60 mg/kg q7dx3, day 36 from inoculum): 334.2 mg | DD0113 tumour weight, Mean (EDO60: EDO-S101 60 mg/kg q7dx3, day 40 from inoculum): 371.2 mg | DD0113 tumour weight, Mean (EDO60: EDO-S101 60 mg/kg q7dx3, day 43 from inoculum): 339.5 mg | DD0113 tumour weight, Mean (EDO60: EDO-S101 60 mg/kg q7dx3, day 47 from inoculum): 330.2 mg | DD0113 tumour weight, Mean (EDO60: EDO-S101 60 mg/kg q7dx3, day 50 from inoculum): 310.9 mg | DD0113 tumour weight, Mean (EDO60: EDO-S101 60 mg/kg q7dx3, day 54 from inoculum): 321.1 mg | DD0113 tumour weight, Mean (EDO60: EDO-S101 60 mg/kg q7dx3, day 58 from inoculum): 303.3 mg | DD0113 tumour weight, Mean (EDO60: EDO-S101 60 mg/kg q7dx3, day 62 from inoculum): 298.3 mg | DD0113 tumour weight, Mean (EDO60: EDO-S101 60 mg/kg q7dx3, day 65 from inoculum): 291.6 mg | DD0113 tumour weight, Mean (EDO60: EDO-S101 60 mg/kg q7dx3, day 69 from inoculum): 334.6 mg | DD0113 tumour weight, Mean (EDO60: EDO-S101 60 mg/kg q7dx3, day 72 from inoculum): 423.7 mg | DD0113 tumour weight, Mean (EDO60: EDO-S101 60 mg/kg q7dx3, day 75 from inoculum): 432.9 mg | DD0113 tumour weight, Mean (EDO60: EDO-S101 60 mg/kg q7dx3, day 79 from inoculum): 475.7 mg | DD0113 tumour weight, Mean (EDO60: EDO-S101 60 mg/kg q7dx3, day 83 from inoculum): 376.9 mg
